Molecules are shown by their SMILES.

The first data set in a line: Miscibility / self-emulsification in dissolution media modelling ICH dissolution testing. The class given is physicochemical. Particulars: 1 g of 100% or 75% preparation in 1 L PBS with […] curcumin, 37° C., 300 rpm 10 min, then 10 min without stirring. How it is done:
To assess whether oleic acid could self-emulsify at the concentrations used in the disclosed pharmaceutical compositions, experiments was performed that were designed to model dissolution testing according to International Council for Harmonisation (ICH) guidelines. One liter of a dissolution media comprising phosphate buffered saline (PBS) and 2.5% curcumin was warmed to 37° C. and constant stirring at 300 rpm maintained. Curcumin was added as a coloring agent and was very effective at visualizing the distribution of lipids through the dissolution media. Miscibility experiments were performed using two concentrations of oleic acid nominally above the CMC concentration for this fatty acid. In one series of experiments, 1 g of 100% oleic acid was added to the dissolution media. The control compound was 1 g of 100% MAISINE™ CC. In a second series of experiments 1 g of 75% oleic acid (diluted with 250 mg of MAISINE™ CC) was added to the dissolution media. The control compound was 1 g of 75% MAISINE™ CC. The miscibility of oleic acid and MAISINE™ CC was assessed by observing the dissolution media for 10 minutes with constant stirring and then 10 minutes without stirring. Photographs were taken at time 0, 1, 2, 3, 4, 5 and 10 minutes during the stirring phase and 2, 4 and 10 minutes after stirring ceased.
On to `CCCCCCCC/C=C\CCCCCCCC(=O)O` [oleic acid], for which the “miscibility in dissolution media” value is recorded as “not miscible”.

Assay in a further data set: not given
The settings on record: cited from earlier work.
For `CC(C)(Oc1ccc(CCNC(=O)c2ccc(Cl)cc2)cc1)C(=O)O` [bezafibrate], the “log P” value is reported as 4.0. Regarding `CC(C)(Oc1ccc(C2CC2(Cl)Cl)cc1)C(=O)O` (centres unmarked) [ciprofibrate], the “log P” value is reported as 3.6.

`CCC(C)(Oc1ccc(C2(c3ccc(OC(C)(CC)C(=O)O)cc3)CCCCC2)cc1)C(=O)O` (centres unmarked) [clinofibrate]: the “log P” value was 7.5. Regarding `CCOC(=O)C(C)(C)Oc1ccc(Cl)cc1` [clofibrate], the “log P” value is 3.4. Turning to `CN(C)C(=O)CCCOC(=O)C(C)(C)Oc1ccc(Cl)cc1` [clofibride], the “log P” value was 2.8. For the compound `CC(C)(Oc1ccc(Cl)cc1)C(=O)OCCOC(=O)c1cccnc1` [etofibrate], the “log P” value was 3.5. Consider `CC(C)(Oc1ccc(C(=O)c2ccc(Cl)cc2)cc1)C(=O)O` [fenofibric acid], for which the “log P” value is 4.4. In the case of `Cc1ccc(C)c(OCCCC(C)(C)C(=O)O)c1` [gemfibrozil], the “log P” value is 4.4. As to `CC(C)(Oc1ccc(C2CCCc3ccccc32)cc1)C(=O)O` (centres unmarked) [nafenopin], the “log P” value was 4.9. With `CC(C)(Oc1ccc(Cl)cc1)C(=O)OCCCOC(=O)c1cccnc1` [ronifibrate], the “log P” value is on record as 3.9.

`CC(C)(Oc1ccc(Cl)cc1)C(=O)OCCCOC(=O)C(C)(C)Oc1ccc(Cl)cc1` [simfibrate]: the “log P” value is reported as 6.2.

Assay in a further data set: not given
The settings on record: reported value; cited from earlier work.
Take `CCCCCCCC/C=C\CCCCCCCC(=O)O` [oleic acid]: the “critical micellar concentration (CMC)” value was 2.3 mM. Turning to `CCCCCCCCCCCCCCCCCC(=O)[O-].[Na+]` [sodium stearate], the “critical micellar concentration (CMC)” value is 0.071 mM.

The values are drawn from patent US20250195461A1, “Fibrate Compositions for Treating Inflammation and Neuroinflammation” (TRx Biosciences Limited, priority 2022, published 2025).
